Reference: PubChem BioAssay AID720667 (NMMLSC, 2013)
The source made the active and inactive calls.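 The calls were made as follows: active = over 50% inhibition of phosphorylation of either protein kinase C substrates or the ERK kinase; inactive = both inhibited below 50%.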

Tested on: TALL-104 cells, ERK phosphorylation flow cytometry
Experiment: inhibitors of MAPKK activity via ERK phosphorylation, late-stage follow-up, mechanism study for lytic granule exocytosis inhibitor project, TALL-104 cells, flow cytometry, CherryPick01 (AID 720667)
Settings: active compounds read high; dose or concentration not given here

Work on `CC1=C(C)CS(=O)N(S(=O)(=O)c2ccc(Cl)cc2)C1` (configuration not stated) yielded an inhibition of 83.8%.

`CCOC(=O)c1c(NC(=O)COc2ccccc2OCC)sc2c1CC(C)(C)NC2(C)C` gave an inhibition of 87.3%.

`O=c1c2ccc(F)cc2sn1-c1ccccc1` showed an inhibition of 53.4%.

In the case of `CCN(CC)CCCNc1ccc(-c2nnc(-c3ccc(OCC(C)C)cc3)o2)cn1`, the inhibition is reported as -22.6% (inactive).

`O=c1c2ccccc2sn1-c1ccccc1` was tested, and the inhibition was 37.9% (inactive).

For `CC(C)(c1ccccc1)c1ccc(OCC(O)CNC2CCN(Cc3ccccc3)CC2)cc1` (configuration not stated), the inhibition was 36.4% (inactive).

`O=C(Cn1sc2ccccc2c1=O)Nc1ccc(F)cc1` was tested, and the inhibition was 18.2% (inactive).

For `COc1ccc(N2C(=O)CC(Sc3nnc(-c4ccccc4)o3)C2=O)cc1` (configuration not stated), the inhibition was 17.4% (inactive).

`COc1ccccc1CNc1nc(NCc2ccc(C(C)C)cc2)c2sccc2n1` was tested, and the inhibition was -14.8% (inactive).

`Cc1cc(N2CCN(c3nc(-c4ccc([N+](=O)[O-])cc4)cs3)CC2)c2ccccc2n1` gave an inhibition of 78.9%.

With `COc1ccc(-n2sc3ccccc3c2=O)cc1` the inhibition was 35% (inactive).

`CCCCC[C@@H](C)N1C[C@@H](COCc2ccccc2)Oc2cc(N3CC[C@@H](N(C)C)C3)ccc2S1(=O)=O` showed an inhibition of 51.1%.

`CN(C)CCNC(=O)c1ccc(-c2cn3c(-c4ccc(Oc5ccccc5)cc4)cnc3cn2)cc1` was tested, and the inhibition was -0.1% (inactive).

In the case of `CC1=NOC(=O)/C1=C/c1ccc(-c2ccc(Cl)cc2)o1`, the inhibition is reported as 40.3% (inactive).

With `Cc1ccc(Nc2nc(NCc3ccco3)c3ccccc3n2)cc1` the inhibition was 1.1% (inactive).

With `O=C(CN1C(=O)/C(=C\c2cccc(Br)c2)Oc2ccccc21)NCCCN1CCOCC1` the inhibition was 8% (inactive).

For `COC(=O)c1c(NC(=O)c2nc3ccccc3s2)sc2c1CC(C)(C)NC2(C)C`, the inhibition was 11.8% (inactive).

`CCCCC[C@@H](C)N1C[C@H](COCc2ccccc2)Oc2cc(N3CC[C@@H](N(C)C)C3)ccc2S1(=O)=O` was tested, and the inhibition was 37.2% (inactive).

`COc1ccc(-c2cc(NC=O)c3ncc(-c4ccccc4)n3c2)cc1OC` was tested, and the inhibition was -2.1% (inactive).

In the case of `O=CNc1cc(-c2ccsc2)cn2c(-c3ccccc3)cnc12`, the inhibition is reported as -17.6% (inactive).

`CC1COCC(C)N1C1=C(Cl)C(=O)c2ccccc2C1=O` (configuration not stated) was tested, and the inhibition was -16.4% (inactive).

With `N#Cc1c(Nc2ccccc2Cl)s[nH]c1=O` the inhibition was 66.4%.

`CCCCC[C@@H](C)N1C[C@@H](COCc2ccccc2)Oc2cc(N3CC[C@H](N(C)C)C3)ccc2S1(=O)=O` was tested, and the inhibition was 28% (inactive).

`O=C1CC(Sc2nnnn2-c2ccccc2)C(=O)N1c1cccc(Cl)c1` (configuration not stated) was tested, and the inhibition was 67.2%.

With `O=C(Cn1sc2ccccc2c1=O)NC12CC3CC(CC(C3)C1)C2` the inhibition was 35.6% (inactive).

With `Cc1ccc(S(=O)(=O)n2ccc3c(OCCOCCNCc4ccc(F)cc4)cccc32)cc1` the inhibition was -8.2% (inactive).

In the case of `COc1ccc(-c2cc(NC=O)c3ncc(-c4cccc(OC)c4)n3c2)cc1`, the inhibition is reported as -18.8% (inactive).
